Patent publication US11401246B2, “Triazole glycolate oxidase inhibitors” (CANTERO THERAPEUTICS, INC., priority 2018, dated 2022)

What follows are molecules tested against T1, human glycolate oxidase (hGO) (Homo sapiens, UniProt Q9UJM8) (assay: In vitro inhibition of human glycolate oxidase (enzymatic assay, HRP-coupled Trinder reaction)). Settings: recombinant hGO, 40 mM glycolic acid, pH 7, read at 515 nm, 1 minute after initiation of Trinder reaction; read-out: % Inhibition.
T1 construct: His-tag (6 histidines, pET-15b) (N); made in house; host or cells: E. coli BL21 (DE3)
T1 sequence (Q9UJM8 1-370): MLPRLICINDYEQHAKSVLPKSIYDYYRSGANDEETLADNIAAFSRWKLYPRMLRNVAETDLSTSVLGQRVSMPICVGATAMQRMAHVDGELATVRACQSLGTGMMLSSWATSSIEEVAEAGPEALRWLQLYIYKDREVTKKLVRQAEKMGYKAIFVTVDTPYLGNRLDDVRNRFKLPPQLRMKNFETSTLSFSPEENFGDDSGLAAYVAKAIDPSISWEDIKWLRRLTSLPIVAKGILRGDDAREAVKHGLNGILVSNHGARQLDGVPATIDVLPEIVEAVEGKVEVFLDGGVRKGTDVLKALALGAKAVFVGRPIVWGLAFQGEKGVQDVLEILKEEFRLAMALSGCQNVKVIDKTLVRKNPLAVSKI
Format: biochemical
How it was run: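 Glyoxylate production measured indirectly: H2O2 from hGO oxidation of 40 mM glycolic acid (pH 7 phosphate, 0.1 mM EDTA) drives HRP-coupled quinoneimine dye formation, read spectrophotometrically at 1 minute. Enzyme is His-tagged human Hao1 expressed in BL21 E. coli and nickel-affinity purified.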
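Further: values are IC50 potency bins despite the % Inhibition label.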

| SMILES | IC50 |
| --- | --- |
| CS(=O)(=O)Nc1ccc(-c2ccc(Oc3[nH]nnc3C(=O)O)cc2)cc1 [Example 102, 5-((4′-(methylsulfonamido)-[1,1′-biphenyl]-4-yl)oxy)-1H-1,2,3-triazole-4-carboxylic Acid] | < 100 nM |
| O=C(O)c1nn[nH]c1Oc1ccc(-c2ccc(C(F)(F)F)cc2)cc1F [Example 104, 5-((3-fluoro-4′-(trifluoromethyl)-[1,1′-biphenyl]-4-yl)oxy)-1H-1,2,3-triazole-4-carboxylic Acid] | 100 to 200 nM |
| CS(=O)(=O)c1ccc(-c2ccc(Oc3[nH]nnc3C(=O)O)c(F)c2)cc1 [Example 105, 5-((3-fluoro-4′-(methylsulfonyl)-[1,1′-biphenyl]-4-yl)oxy)-1H-1,2,3-triazole-4-carboxylic Acid] | 100 to 200 nM |
| CC(C)(C)c1ccc(-c2ccc(Oc3[nH]nnc3C(=O)O)c(F)c2)cc1 [Example 106, 5-((4′-(tert-butyl)-3-fluoro-[1,1′-biphenyl]-4-yl)oxy)-1H-1,2,3-triazole-4-carboxylic Acid] | 100 to 200 nM |
| CC(C)c1ccc(-c2ccc(Oc3[nH]nnc3C(=O)O)c(F)c2)cc1 [Example 107, 5-((3-fluoro-4′-isopropyl-[1,1′-biphenyl]-4-yl)oxy)-1H-1,2,3-triazole-4-carboxylic Acid] | 100 to 200 nM |
| CC(C)Cc1ccc(-c2ccc(Oc3[nH]nnc3C(=O)O)cc2)cc1 [Example 108, 5-((4′-isobutyl-[1,1′-biphenyl]-4-yl)oxy)-1H-1,2,3-triazole-4-carboxylic Acid] | > 200 nM |
| CC(C)c1cccc(-c2ccc(Oc3[nH]nnc3C(=O)O)cc2)c1 [Example 109, 5-((3′-isopropyl-[1,1′-biphenyl]-4-yl)oxy)-1H-1,2,3-triazole-4-carboxylic Acid] | > 200 nM |
| O=C(O)c1nn[nH]c1Oc1ccc(-c2cc(F)c(F)c(F)c2)cc1 [Example 110, 5-((3′,4′,5′-trifluoro-[1,1′-biphenyl]-4-yl)oxy)-1H-1,2,3-triazole-4-carboxylic Acid] | 100 to 200 nM |
| CC(C)c1ccc(-c2cccc(Oc3[nH]nnc3C(=O)O)c2)cc1 [Example 111, 5-((4′-isopropyl-[1,1′-biphenyl]-3-yl)oxy)-1H-1,2,3-triazole-4-carboxylic Acid] | 100 to 200 nM |
| O=C(O)c1nn[nH]c1Oc1ccc(-c2cccc(C(F)(F)F)c2)cc1 [Example 112, 5-((3′-(trifluoromethyl)-[1,1′-biphenyl]-4-yl)oxy)-1H-1,2,3-triazole-4-carboxylic Acid] | 100 to 200 nM |
| CC(C)c1ccc(-c2ccc(Sc3[nH]nnc3C(=O)O)cc2)cc1 [Example 113, 5-((4′-isopropyl-[1,1′-biphenyl]-4-yl)thio)-1H-1,2,3-triazole-4-carboxylic Acid] | 100 to 200 nM |
| O=C(O)c1nn[nH]c1Oc1cccc(-c2ccc(C(F)(F)F)cc2)c1 [Example 114, 5-((4′-(trifluoromethyl)-[1,1′-biphenyl]-3-yl)oxy)-1H-1,2,3-triazole-4-carboxylic Acid] | 100 to 200 nM |
| O=C(O)c1nn[nH]c1Sc1ccc(-c2ccc(C(F)(F)F)cc2)cc1 [Example 115, 5-((4′-(trifluoromethyl)-[1,1′-biphenyl]-4-yl)thio)-1H-1,2,3-triazole-4-carboxylic Acid] | 100 to 200 nM |
| O=C(O)c1nn[nH]c1Oc1ccc(-c2ccc(-c3cccnc3)cc2)cc1 [Example 120, 5-[4[4-(3-pyridyl)phenyl]phenoxy]-1H-1,2,3-triazole-4-carboxylic Acid] | 100 to 200 nM |
| O=C(O)c1nn[nH]c1Oc1ccc(-c2ccc(C3CC3)cc2)cc1 [Example 121, 5-((4′-cyclopropyl-[1,1′-biphenyl]-4-yl)oxy)-1H-1,2,3-triazole-4-carboxylic Acid] | < 100 nM |
| CC1(c2ccc(-c3ccc(Oc4[nH]nnc4C(=O)O)cc3)cc2)CC1 [Example 122, 5-((4′-(1-methylcyclopropyl)-[1,1′-biphenyl]-4-yl)oxy)-1H-1,2,3-triazole-4-carboxylic Acid] | 100 to 200 nM |
| O=C(O)c1nn[nH]c1Oc1ccc(-c2ccc(C3CC3(F)F)cc2)cc1 (stereo not shown) [Example 123, 5-((4′-(2,2-difluorocyclopropyl)-[1,1′-biphenyl]-4-yl)oxy)-1H-1,2,3-triazole-4-carboxylic Acid] | 100 to 200 nM |
| O=C(O)c1nn[nH]c1Oc1ccc(C2CCC3(CC2)CC3(F)F)cc1 (stereo not shown) [Example 126, 5-(4-(1,1-Difluorospiro[2.5]octan-6-yl)phenoxy)-1H-1,2,3-triazole-4-carboxylic acid] | > 200 nM |
| O=C(O)c1nn[nH]c1Oc1ccc(-c2ccc(C3CC(F)(F)C3)cc2)cc1 [Example 127, 5-((4′-(3,3-difluorocyclobutyl)-[1,1′-biphenyl]-4-yl)oxy)-1H-1,2,3-triazole-4-carboxylic Acid] | 100 to 200 nM |
| Cc1cc(-c2ccc(-c3ccc(Oc4[nH]nnc4C(=O)O)cc3)cc2)ccn1 [Example 129, 5˜((4′-(2-methylpyridin-4˜yl)-[1,1′-biphenyl]-4-yl)oxy)-1H-1,2,3-triazole-4-carboxylic Acid] | 100 to 200 nM |
| O=C(O)c1nn[nH]c1Oc1ccc(C2CC2(F)F)cc1 (stereo not shown) [Example 130, 5-(4-(2,2-difluorocyclopropyl)phenoxy)-1H-1,2,3-triazole-4-carboxylic Acid] | > 200 nM |
| O=C(O)c1nn[nH]c1Oc1ccc(C2CCC(F)(F)C2)cc1 (stereo not shown) [Example 131, 5-(4-(3,3-Difluorocyclopentyl)phenoxy)-1H-1,2,3-triazole-4-carboxylic Acid] | 100 to 200 nM |
